Experimental data from US7973181B2, “Hydroxamic acid derivatives as inhibitors of HDAC enzymatic activity” (Chroma Therapeutics Ltd., priority 2005, dated 2011).

Assays:
[1] = biological target: histone deacetylase activity (HeLa nuclear extract); assay: HDAC fluorescent activity assay (Biomol Fluor de Lys), HeLa nuclear extract; type: biochemical; conditions: Fluor de Lys substrate
Experimental: The ability of compounds to inhibit histone deacetylase activities was measured using the commercially available HDAC fluorescent activity assay from Biomol. In brief, the Fluor de Lys™ substrate, a lysine with an epsilon-amino acetylation, is incubated with the source of histone deacetylase activity (HeLa nuclear extract) in the presence or absence of inhibitor.
Deacetylation of the substrate sensitises the substrate to Fluor de Lys™ developer, which generates a fluorophore. Thus, incubation of the substrate with a source of HDAC activity results in an increase in signal that is diminished in the presence of an HDAC inhibitor.
Data are expressed as a percentage of the control, measured in the absence of inhibitor, with background signal being subtracted from all samples, as follows: — % activity=((S^i−B)/(S^o−B))×100 where S^i is the signal in the presence of substrate, enzyme and inhibitor, S^o is the signal in the presence of substrate, enzyme and the vehicle in which the inhibitor is dissolved, and B is the background signal measured in the absence of enzyme.
(§1) IC50 values were determined by non-linear regression analysis, after fitting the results of eight data points to the equation for sigmoidal dose response with variable slope (% activity against log concentration of compound), using Graphpad Prism software.
Histone deacetylase activity from crude nuclear extract derived from HeLa cells was used for screening. The preparation, purchased from 4C (Seneffe, Belgium), was prepared from HeLa cells harvested whilst in exponential growth phase. The nuclear extract is prepared according to Dignam JD1983 Nucl. Acid. Res. 11, 1475-1489, snap frozen in liquid nitrogen and stored at −80° C. The final buffer composition was 20 mM Hepes, 100 mM KCl, 0.2 mM EDTA, 0.5 mM DTT, 0.2 mM PMSF and 20% (v/v) glycerol.
Results of testing the compounds of the examples in this assay are given in the second column of Table 1 below.

Hela = assay: Cell inhibition assay (SRB cell viability), Hela; type: cell-based; conditions: Homo sapiens, HeLa, 72 h, Hela cells
Experimental: (§2) The corresponding cancer cell lines (Hela, U937 and HUT) growing in log phase were harvested and seeded at 1000 cells/well (200 ul final volume) into 96-well tissue culture plates. Following 24 h of cell growth cells were treated with compounds (final concentration of 20 uM). Plates were then re-incubated for a further 72 h before a sulphorhodamine B (SRB) cell viability assay was conducted according to Skehan 1990 J Natl Canc Inst 82, 1107-1112.
(§3) Data were expressed as a percentage inhibition of the control, measured in the absence of inhibitor, as follows: — % inhibition=100−((S^i/S^o)×100) where S^i is the signal in the presence of inhibitor and S^o is the signal in the presence of DMSO.
as §1
(§4) Results of testing the compounds of the examples in this assay are given in the third- fifth columns of Table 1.

U937 = assay: Cell inhibition assay (SRB cell viability), U937; type: cell-based; conditions: Homo sapiens, U-937, 72 h, U937 cells
Experimental: as §2, §3, §1, §4

HUT = assay: Cell inhibition assay (SRB cell viability), HUT; type: cell-based; conditions: 72 h, HUT cells
Experimental: as §2, §3, §1, §4

Structure (SMILES) | IC50 [1] [nM] | IC50 (Hela) [nM] | IC50 (U937) [nM] | IC50 (HUT) [nM]
CC(=O)N[C@@H](CCCOc1ccc(CNCc2ccc3cc(C(=O)NO)sc3c2)cc1)C(=O)OC1CCCC1 [Example 21, (S)-2-Acetylamino-5-(4-{[(2-hydroxycarbamoyl-benzo[b]thiophen-6-ylmethyl)-amino]-methyl}-phenoxy)-pentanoic acid cyclopentyl ester] | < 100 | 330 to 3300 | 330 to 3300 | < 330
O=C(NO)c1cc2ccc(CNCc3ccc(OCCC[C@H](NC4CCCCC4)C(=O)OC4CCCC4)cc3)cc2s1 [Example 22, (S)-2-Cyclohexylamino-S-(4-{[(2-hydroxycarbamoyl-benzo[b]thiophen-6-ylmethyl)-amino]-methyl}-phenoxy)-pentanoic acid cyclopentyl ester] | 101 to 1000 | 330 to 3300 | 330 to 3300 | 330 to 3300
N[C@H](C(=O)OC1CCCC1)c1ccc(Oc2ccc(CNCc3ccc4cc(C(=O)NO)sc4c3)cc2)cc1 [Example 24, (S)-Amino-[4-(4-{[(2-hydroxycarbamoyl-benzo[b]thiophen-6-ylmethyl)-amino]-methyl}-phenoxy)-phenyl]-acetic acid cyclopentyl ester] | < 100 | 330 to 3300 | < 330 | < 330
N[C@@H](Cc1ccc(Oc2ccc(CNCc3ccc4cc(C(=O)NO)sc4c3)cc2)cc1)C(=O)OC1CCCC1 [Example 26, (S)-2-Amino-3-[4-(4-{[(2-hydroxycarbamoyl-benzo[b]thiophen-6-ylmethyl)-amino]-methyl}-phenoxy)-phenyl]-propionic acid cyclopentyl ester] | < 100 | 330 to 3300 | < 330 | < 330
N[C@@H](CC1CCC(Oc2ccc(CNCc3ccc4cc(C(=O)NO)sc4c3)cc2)CC1)C(=O)OC1CCCC1 (stereo partly drawn) [Example 28, 2-(S)-Amino-3-[4-(4-{[(2-hydroxycarbamoyl-benzo[b]thiophen-6-ylmethyl)-amino]-methyl}-phenoxy)-cyclohexyl]-propionic acid cyclopentyl ester] | < 100 | 330 to 3300 | < 330 | < 330
NC(C(=O)OC1CCCC1)C1CCC(Oc2ccc(CNCc3ccc4cc(C(=O)NO)sc4c3)cc2)CC1 (stereo not drawn) [Example 30, Amino-[4-(4-{[(2-hydroxycarbamoyl-benzo[b]thiophen-6-ylmethyl)-amino]-methyl}-phenoxy)-cyclohexyl]-acetic acid cyclopentyl ester] | < 100 | 330 to 3300 | < 330 | < 330
